Assay results reported in patent publication US20180370912A1, “COMPOUNDS AND METHODS FOR TREATING DISEASES MEDIATED BY PROTEIN DISULFIDE ISOMERASE” (Beth Israel Deaconess Medical Center, Inc., priority 2017, published 2018).

Test system: platelet accumulation at sites of laser-induced injury
Experiment: Thrombus formation in cremaster arterioles after laser-induced injury, intravital microscopy
Type: in vivo
Conditions: mice
Method: Intravital video microscopy of the cremaster muscle microcirculation was performed as described previously in Falati, S., Gross, P., Merrill-Skoloff, G., Furie, B. C. & Furie, Nat Med 8, 1175-81. (2002); and Jasuj a, R. et al., J Clin Invest 122, 2104-2113 (2012). Digital images were captured with an Orca Flash 4.0v2 sCMOS camera (Hamamatsu Photonics K.K., Shizuoka Pref., Japan). Representative images are presented, but the median curves include the full data. The kinetics of platelet thrombus formation were analyzed by determining median fluorescence values over time in ˜30-40 thrombi in three mice.
Two hours prior to surgery, 100 mg/kg of the suicide P450 inhibitor 1-aminobenzotriazole (ABT) was administered intraperioneally to each mouse. The cremaster muscle was then surgically exposed. Prior to arteriolar wall injury, DyLight-labeled antibodies were infused intravenously together with drug or vehicle control. Injury to a cremaster arteriolar vessel (30-50-μm diameter) was induced with a MicroPoint laser system Andor Andor Technology, Ltd., Belfast Ireland) focused through the microscope objective, parfocal with the focal plane and tuned to 440 nm through a dye cell containing 5 mM coumarin in methanol. Data were captured digitally from two fluorescence channels, 488/520 nm and 647/670 nm, as well as a brightfield channel Data acquisition was initiated both prior to and following an ablation laser pulse for each injury. The microscope system was controlled and images were collected and analyzed using SlideBook 6.0 (Intelligent Imaging Innovations, Denver, Colo.).
Prior to induction of the thrombus but after injection of the fluorescently labeled antibody, approximately 30 time points were recorded. Subsequently, a thrombus is initiated and recorded for approximately 170 seconds. […] The mean of maximal intensity values in the upstream region for each frame is calculated and used as the threshold to define those pixels containing signal. […] Using this information, the actual integrated intensity for each frame is calculated according to the following formula: […]

With `CCOC(=O)c1c(CNCCN(CC)CC)n(-c2ccccc2)c2cc(Br)c(O)cc12` [bepristat 2a] the tolerability in vivo (15 mg/kg infusion) was “tolerated in vivo”, the “inhibition of platelet accumulation at sites of laser-induced injury” value (infusion 15 mg/kg body weight, p=0.02, FIG. 3c) was 14.9 % of controls and the “thrombus formation in vivo” value (laser injury of cremaster arterioles) was “potently inhibits thrombus formation”.
